# What was measured:
# CHO cells = experiment: GFP-NLS transduction in different adherent and suspension cells (flow cytometry, Pos cells % and viability %); assay type: cell-based, Chinese hamster; conditions: Protocol B, 35 μM shuttle, 5 μM GFP-NLS, 10 seconds
# Protocol: The media in wells was removed, cells were washed once with PBS previously warmed at 37° C., and the shuttle agent/cargo mixture was then added to cover all cells for the desired length of time. The shuttle agent/cargo mixture in wells was removed, the cells were washed once with PBS, and fresh complete medium was added. Before analysis, the cells were washed once with PBS and fresh complete medium was added.
# (§1) The ability of the shuttle agent His-CM18-PTD4 to deliver GFP-NLS to the nuclei of different adherent and suspension cells using Protocols B (adherent cells) or C (suspension cells) as described in Example 9.1 was examined. The cell lines tested included: HeLa, Balb3T3, HEK 293T, CHO, NIH3T3, Myoblasts, Jurkat, THP-1, CA46, and HT2 cells, which were cultured as described in Example 1. GFP-NLS (5 μM; see Example 5.1) was co-incubated with 35 μM of His-CM18-PTD4 and exposed to adherent cells for 10 seconds (Protocol B), or was co-incubated with 5 μM of His-CM18-PTD4 and exposed to suspension cells for 15 seconds (Protocol C). […] “Pos cells (%)” is the mean percentages of all cells that emanate a GFP signal.
# PPIB gene = experiment: T7E1 DNA cleavage assay after CRISPR/Cas9-NLS delivery, HeLa cells; assay type: cell-based, Human; conditions: shuttle 10 μM; Cas9-NLS 25 nM; HeLa cells 16 h, medium without serum
# Description: The T7 endonuclease I (T7E1) can be used to detect on-target CRISPR/Cas genome editing events in cultured cells. As an overview, genomic DNA from target cells is amplified by PCR. The PCR products are then denatured and reannealed to allow heteroduplex formation between wild-type DNA and CRISPR/Cas-mutated DNA. T7E1, which recognizes and cleaves mismatched DNA, is used to digest the heteroduplexes. The resulting cleaved and full-length PCR products are visualized by gel electrophoresis.
# The T7E1 assay was performed with the Edit-R™ Synthetic crRNA Positive Controls (Dharmacon #U-007000-05) and the T7 Endonuclease I (NEB, Cat #M0302S). After the delivery of the CRISPR/Cas complex, cells were lysed in 100 μL of Phusion™ High-Fidelity DNA polymerase (NEB #M0530S) laboratory with additives. The cells were incubated for 15-30 minutes at 56° C., followed by deactivation for 5 minutes at 96° C. The plate was briefly centrifuged to collect the liquid at bottom of the wells. 50-μL PCR samples were set up for each sample to be analyzed. The PCR samples were heated to 95° C. for 10 minutes and then slowly (>15 minutes) cooled to room temperature. PCR product (-5 μL) was then separated on an agarose gel (2%) to confirm amplification. 15 μL of each reaction was incubated with T7E1 nuclease for 25 minutes at 37° C. […]
# Jurkat cells = experiment: GFP-NLS transduction in different adherent and suspension cells (flow cytometry, Pos cells % and viability %); assay type: cell-based, Human; conditions: Protocol C, 5 μM shuttle, 5 μM GFP-NLS, 15 seconds
# Protocol: as §1
smiles,measurement,setting,value
CC[C@H](C)[C@H](NC(=O)[C@H](CCCCN)NC(=O)[C@H](CCCCN)NC(=O)[C@H](Cc1ccccc1)NC(=O)[C@H](CC(C)C)NC(=O)[C@H](CCCCN)NC(=O)[C@H](Cc1c[nH]c2ccccc12)NC(=O)[C@H](CCCCN)NC(=O)[C@H](Cc1c[nH]cn1)NC(=O)[C@H](Cc1c[nH]cn1)NC(=O)[C@H](Cc1c[nH]cn1)NC(=O)[C@H](Cc1c[nH]cn1)NC(=O)[C@H](Cc1c[nH]cn1)NC(=O)[C@@H](N)Cc1c[nH]cn1)C(=O)NCC(=O)N[C@@H](C)C(=O)N[C@H](C(=O)N[C@@H](CC(C)C)C(=O)N[C@@H](CCCCN)C(=O)N[C@H](C(=O)N[C@@H](CC(C)C)C(=O)N[C@H](C(=O)N[C@H](C(=O)NCC(=O)N[C@@H](Cc1ccc(O)cc1)C(=O)N[C@@H](C)C(=O)N[C@@H](CCCNC(=N)N)C(=O)N[C@@H](C)C(=O)N[C@@H](C)C(=O)N[C@@H](C)C(=O)N[C@@H](CCCNC(=N)N)C(=O)N[C@@H](CCC(N)=O)C(=O)N[C@@H](C)C(=O)N[C@@H](CCCNC(=N)N)C(=O)N[C@@H](C)C(=O)O)[C@@H](C)O)[C@@H](C)O)C(C)C)C(C)C [His-CM18-PTD4],Cell viability (%) (±St. Dev.; n = 3),CHO cells,92.8 ± 0.1%
same,Mean % cells with GFP signal (±St. Dev.; n = 3),CHO cells,53.7 ± 4.6%
same,"delivery of functional CRISPR/Cas9 complex, cleavage of genomic PPIB (in words)",PPIB gene,successfully deliver a functional CRISPR/Cas9 complex to the nucleus of HeLa cells
same,Cell viability (%) (±St. Dev.; n = 3),Jurkat cells,73.6 ± 0.7%
same,Mean % cells with GFP signal (±St. Dev.; n = 3),Jurkat cells,30.7 ± 2.2%

# — patent US12286632B2, “Rationally-designed synthetic peptide shuttle agents for delivering polypeptide cargos from an extracellular space to the cytosol and/or nucleus of a target eukaryotic cell, uses thereof, methods and kits relating to same” (Feldan Bio Inc., priority 2016, dated 2025)
